Literature values as cited in patent publication US7858118B2, “Extended release composition containing Tramadol” (Galephar Pharmaceutical Research, Inc., priority 2001, dated 2010).
Read-outs that look alike come from different tables or passages of the source.

Legend:
[1] = animal models
[2] = after oral administration of immediate release dosage form
[3] = in words
[4] = single 100 mg oral dose, healthy subjects

Row | SMILES | potency relative to Tramadol in u-opioid binding (μ-opioid receptors) | potency relative to Tramadol in producing analgesia [1] | onset of analgesia [2] | maximum plasma concentration of the [+]-enantiomer of Tramadol (100 mg dose) | maximum plasma concentration of the [−]-enantiomer of Tramadol (100 mg dose) | maximum plasma concentration of the [−]-M1 enantiomer (100 mg dose of Tramadol, first value of the pair) | maximum plasma concentration of the other M1 enantiomer (not given) (100 mg dose of Tramadol, second value of the pair) | maximum plasma concentration at steady state (100 mg four times daily) | time to steady state (100 mg four times daily) | mean absolute bioavailability (100 mg oral dose) | time to peak plasma concentrations (immediate release, oral (b6)) | plasma half-life (multiple dosing) | effect of food on rate or extent of absorption (oral, immediate release) | mean peak plasma concentration of the active mono-O-desmethyl metabolite (single 100 mg oral dose of Tramadol) | time of peak plasma concentration of the mono-O-desmethyl metabolite (single 100 mg oral dose of Tramadol, post-dose) | mean peak plasma concentration of Tramadol [4] | time of mean peak plasma concentration of Tramadol [4] | plasma half-life (single dosing) | solubility in water and body fluids [3]
1 | CN(C)C[C@H]1CCCC[C@]1(O)c1cccc(O)c1 [Example M1, O-desmethyl tramadol] | 200 times | up to 6 times | – | – | – | – | – | – | – | – | – | – | – | – | – | – | – | – | –
2 | COc1cccc(C2(O)CCCCC2CN(C)C)c1 (stereo not shown) [Tramadol] | – | – | ≤ 1 h | 168 ± 36 ng/mL | 148 ± 33 ng/mL | 35 ± 10 ng/mL | 26 ± 13 ng/mL | 592 ± 177 ng/mL | 2 days | ≈ 75% | ≈ 2 hours | 7 h | does not significantly affect | 55 ± 20 ng/mL | ≈ 3 hours | 308 ± 78 ng/mL | ≈ 2 hours | 6 h | extremely high solubility
